Measurements from patent publication US20100256104A1, “NOVEL AMIDE COMPOUNDS” (ASTRAZENECA R&D, priority 2009, published 2010).

molecular target: T1, recombinant human GR (Homo sapiens, UniProt P04150); assay: Human Glucocorticoid Receptor (GR) Assay, fluorescence polarization competition with GS Red tracer; conditions: 2 hours at room temperature, 100% control 10 μM Dexamethasone, XLfit model 205, read-out: Inhibition of GR binding, IC50
T1 construct: purchased Panvera/Invitrogen P2812 (kit P2893)
T1 sequence (P04150 1-777): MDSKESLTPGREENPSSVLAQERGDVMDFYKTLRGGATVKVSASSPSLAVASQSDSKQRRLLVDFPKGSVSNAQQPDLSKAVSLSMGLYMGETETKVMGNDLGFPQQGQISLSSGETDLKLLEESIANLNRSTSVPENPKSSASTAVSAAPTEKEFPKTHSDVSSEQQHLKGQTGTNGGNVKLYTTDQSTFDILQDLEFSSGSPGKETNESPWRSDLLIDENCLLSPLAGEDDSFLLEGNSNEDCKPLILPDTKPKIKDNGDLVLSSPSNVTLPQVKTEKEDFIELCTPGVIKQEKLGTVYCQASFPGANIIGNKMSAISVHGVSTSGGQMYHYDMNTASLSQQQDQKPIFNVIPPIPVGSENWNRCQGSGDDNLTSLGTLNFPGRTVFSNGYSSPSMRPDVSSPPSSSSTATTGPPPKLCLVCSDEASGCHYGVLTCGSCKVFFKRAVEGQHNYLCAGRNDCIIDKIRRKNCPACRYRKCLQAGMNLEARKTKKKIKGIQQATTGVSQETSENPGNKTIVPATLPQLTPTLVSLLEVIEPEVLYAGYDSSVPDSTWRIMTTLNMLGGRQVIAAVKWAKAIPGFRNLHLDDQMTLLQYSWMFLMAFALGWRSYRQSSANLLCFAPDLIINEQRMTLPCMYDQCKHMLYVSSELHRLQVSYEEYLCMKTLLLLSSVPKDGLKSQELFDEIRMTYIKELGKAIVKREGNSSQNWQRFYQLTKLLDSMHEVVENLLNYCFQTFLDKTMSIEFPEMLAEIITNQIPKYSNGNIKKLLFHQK
In short: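 Fluorescence polarization competition: recombinant human GR with GS Red tracer, stabilizing peptide and DTT in potassium phosphate/sodium molybdate/EDTA buffer. 2 h in dark at room temperature, read at ex 530/em 590 nm. Controls: DMSO (0%) and 10 μM dexamethasone (100%).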

| Structure (SMILES) | IC50 [nM] |
| --- | --- |
| C[C@]12Cc3cnn(-c4cccc(C(=O)N5CCC[C@@H]5C(N)=O)c4)c3C=C1CC[C@@H]1[C@@H]2[C@@H](O)C[C@@]2(C)[C@H]1CC[C@]2(OC(=O)c1cocn1)C(=O)SCF [Example 50, (1R,3aS,3bS,10aR, 10bS,11S,12aS)-7-(3-{[(2R)-2-carbamoyl-pyrrolidin-1-yl]carbonyl}phenyl)-1-{[(fluoromethyl)sulfanyl]carbonyl}-11-hydroxy-10a,12a-dimethyl-1,2,3,3a,3b,4,5,7,10, 10a,10b,11,12,12a-tetradecahydrocyclo-penta[5,6]naphtho [1,2-f]indazol-1-yl 1,3-oxazole-4-carboxylate] | 8.2 |
| CCC(=O)O[C@]1(C(=O)SCF)CC[C@H]2[C@@H]3C[C@H](C)C4=Cc5c(cnn5-c5cccc(C(=O)N[C@@H](C)C(N)=O)c5)C[C@]4(C)[C@H]3[C@@H](O)C[C@@]21C [Example 23, (1R,3aS,3bS,5S, 10aR,10bS,11S,12aS)-7-(3-{[(1S)-2-amino-1-methyl-2-oxoethyl]carbamoyl}phenyl)-1-{[(fluoromethyl)sulfanyl]carbonyl}-11-hydroxy-5,10a,12a-trimethyl-1,2,3,3a,3b,4,5,7,10, 10a,10b,11,12,12a-tetradecahydrocyclo-penta[5,6]naphtho [1,2-f]indazol-1-yl propanoate] | 4 |
| CCC(=O)O[C@]1(C(=O)SCF)[C@H](C)C[C@H]2[C@@H]3CCC4=Cc5c(cnn5-c5cccc(C(=O)N6CCC[C@@H]6C(N)=O)c5)C[C@]4(C)[C@@]3(F)[C@@H](O)C[C@@]21C [Example 42, (1R,2R,3aS,3bS, 10aS,10bR,11S,12aS)-7-(3-{[(2R)-2-carbamoyl-pyrrolidin-1-yl]carbonyl}phenyl)-10b-fluoro-1-{(fluoromethyl)sulfanyl] carbonyl}-11-hydroxy-2,10a,12a-trimethyl-1,2,3,3a,3b,4,5,7,10, 10a,10b,11,12,12a-tetradecahydrocyclo-penta[5,6]naphtho [1,2-f]indazol-1-yl propanoate] | 4.4 |
| COCC(=O)O[C@]1(C(=O)SCC#N)CC[C@H]2[C@@H]3CCC4=Cc5c(cnn5-c5cccc(C(=O)NCC(N)=O)c5)C[C@]4(C)[C@H]3[C@@H](O)C[C@@]21C [Example 51, (1R,3aS,3bS,10aR, 10bS,11S,12aS)-7-{3-[(2-amino-2-oxoethyl)carbamoyl]phenyl}-1-{[(cyanomethyl)sulfanyl]carbonyl}-11-hydroxy-10a,12a-dimethyl-1,2,3,3a,3b,4,5,7,10, 10a,10b,11,12,12a-tetradecahydrocyclo-penta[5,6]naphtho [1,2-f]indazol-1-yl methoxyacetate] | 2.8 |
| C[C@]12Cc3cnn(-c4cccc(C(=O)NCc5cccnc5)c4)c3C=C1CC[C@@H]1[C@@H]2[C@@H](O)C[C@@]2(C)[C@H]1CC[C@]2(OC(=O)c1cocn1)C(=O)SCF [Example 39, (1R,3aS,3bS,10aR, 10bS,11S,12aS)-1-{[(fluoromethyl)sulfanyl]carbonyl}-11-hydroxy-10a,12a-dimethyl-7-{3-[(pyridin-3-ylmethyl)carbamoyl]-phenyl}-1,2,3,3a,3b, 4,5,7,10,10a,- 10b,11,12,12a-tetradecahydro-cyclopenta[5,6]naphtho [1,2-f]indazol-1-yl 1,3-oxazole-4-carboxylate] | 2.4 |

Now those with a lower IC50, led by results:

| IC50 [nM] | Structure (SMILES) |
| --- | --- |
| 1.2 | C[C@H]1C[C@@H]2[C@H]([C@@H](O)C[C@@]3(C)[C@H]2CC[C@]3(OC(=O)C2CC2)C(=O)SCF)[C@@]2(C)Cc3cnn(-c4cccc(C(=O)NCC(N)=O)c4)c3C=C12 [Example 31, (1R,3aS,3bS,5S, 10aR,10bS,11S,12aS)-7-{3-[(2-amino-2-oxoethyl)carbamoyl]phenyl}-1-{(fluoromethyl)sulfanyl] carbonyl}-11-hydroxy-5,10a,12a-trimethyl-1,2,3,3a,3b,4,5,7,10, 10a,10b,11,12,12a-tetradecahydrocyclo-penta[5,6]naphtho [1,2-f]indazol-1-yl cyclopropanecarboxylate] |
| 1.2 | CCC(=O)O[C@]1(C(=O)SCF)[C@H](C)C[C@H]2[C@@H]3CCC4=Cc5c(cnn5-c5cccc(C(=O)NCC(N)=O)c5)C[C@]4(C)[C@@]3(F)[C@@H](O)C[C@@]21C [Example 41, (1R,2R,3aS,3bS, 10aS,10bR,11S,12aS)-7-{3-[(2-amino-2-oxoethyl)carbamoyl]phenyl}-10b-fluoro-1-{[(fluoromethyl)sulfanyl]carbonyl}-11-hydroxy-2,10a,12a-trimethyl-1,2,3,3a,3b,4,5,7,10, 10a,10b,11,12,12a-tetradecahydrocyclo-penta[5,6]naphtho [1,2-f]indazol-1-yl propanoate] |
| 0.91 | CSCCNC(=O)c1cccc(-n2ncc3c2C=C2CC[C@@H]4[C@H]([C@@H](O)C[C@@]5(C)[C@H]4CC[C@]5(OC(=O)C4CC4)C(=O)SCC#N)[C@@]2(C)C3)c1 [Example 9, (1R,3aS,3bS,10aR,10bS,11S,12aS)-1-{[(Cyanomethyl)sulfanyl]carbonyl}-11-hydroxy-10a,12a-dimethyl-7-(3-{[2-(methylsulfanyl)ethyl]carbamoyl}phenyl)-1,2,3,3a,3b,4,5,7,10,10a,10b,11,12,12a-tetradecahydrocyclopenta[5,6]naphtho[1,2-f]indazol-1-yl cyclopropanecarboxylate] |
| 2.2 | C[C@H]1C[C@@H]2[C@H]([C@@H](O)C[C@@]3(C)[C@H]2CC[C@]3(OC(=O)[C@H]2CCCO2)C(=O)SCF)[C@@]2(C)Cc3cnn(-c4cccc(C(=O)NCC(N)=O)c4)c3C=C12 [Example 30, (1R,3aS,3bS,5S, 10aR,10bS,11S,12aS)-7-{3-[(2-amino-2-oxoethyl)carbamoyl]phenyl}-1-{[(fluoromethyl)sulfanyl]carbonyl}-11-hydroxy-5,10a,12a-trimethyl-1,2,3,3a,3b,4,5,7,10, 10a,10b,11,12,12a-tetradecahydrocyclo-penta[5,6]naphtho [1,2-f]indazol-1-yl (2R)-tetrahydrofuran-2-carboxylate] |
| 1.5 | CSCCNC(=O)c1cccc(-n2ncc3c2C=C2CC[C@@H]4[C@H]([C@@H](O)C[C@@]5(C)[C@H]4CC[C@]5(OC(=O)C4CC4)C(=O)SCF)[C@@]2(C)C3)c1 [Example 10, (1R,3aS,3bS,10aR,10bS,11S,12aS)-1-{[(Fluoromethyl)sulfanyl]carbonyl}-11-hydroxy-10a,12a-dimethyl-7-(3-{[2-(methylsulfanyl)ethyl]carbamoyl}phenyl)-1,2,3,3a,3b,4,5,7,10,10a,10b,11,12,12a-tetradecahydrocyclopenta[5,6]naphtho[1,2-f]indazol-1-yl cyclopropanecarboxylate] |
